Literature values, collected in US5221745A, “Psychotropic piperidinylmethyl benzodioxans” (American Home Products Corp., priority 1992, dated 1993).

Legend:
[1] = system: 5-HT1A receptor; settings: Fozard et al. 1987
[2] = biological target: T1, serotonin 5-HT1A receptor (Rattus norvegicus, UniProt P19327); settings: standard for anxiolytic activity
T1 construct: following the procedure of Hall et al., J. Neurochem; 44, 1685 (1985); from tissue
T1 sequence (P19327 1-422): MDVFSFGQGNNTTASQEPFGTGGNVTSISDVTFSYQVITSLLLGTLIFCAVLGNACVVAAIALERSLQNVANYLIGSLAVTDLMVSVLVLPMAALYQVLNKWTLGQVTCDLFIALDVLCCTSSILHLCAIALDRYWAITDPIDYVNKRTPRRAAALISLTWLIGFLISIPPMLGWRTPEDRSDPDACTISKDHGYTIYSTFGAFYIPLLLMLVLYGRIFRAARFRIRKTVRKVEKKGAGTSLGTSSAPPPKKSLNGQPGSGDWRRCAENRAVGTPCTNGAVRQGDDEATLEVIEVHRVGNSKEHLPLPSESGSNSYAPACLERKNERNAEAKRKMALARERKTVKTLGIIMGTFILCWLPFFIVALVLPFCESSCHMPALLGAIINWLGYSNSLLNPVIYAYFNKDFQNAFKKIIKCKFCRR

| Structure (SMILES) | ligand character for 5-HT1A receptors (in words) [1] | affinity for the 5-HT1A serotonin receptor subtype (in words) [2] |
| --- | --- | --- |
| O=C1CC2(CCCC2)CC(=O)N1CCCCNCC1COc2ccccc2O1 (centres unmarked) [MDL 72832, 8-[4-(1,4-benzodioxan-2-ylmethylamino)butyl]-8-azaspiro[4.5]decane-7,9-dione] | selective and stereospecific | – |
| O=C1CC2(CCCC2)CC(=O)N1CCCCN1CCN(c2ncccn2)CC1 [buspirone] | – | potent affinity |
